Measurements reported in PubChem BioAssay AID1963423 (Molecular Pharmacology Branch, DTP, NCI, 2024).

Tested on: 439559-082-T-J2-PDC complex spheroid growth
Experiment: Anticancer human tumor 439559-082-T-J2-PDC patient-derived colon adenocarcinoma cell line growth inhibition [Asc]
Details: for IC50: curve of first compound; for viability, T/C: stronger effect = lower value
How it was run: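 Concentration series start at each agent's clinical Cmax, or at 10 microM when none is established, and drop in half-log steps; agents are applied alone or together to complex spheroids built with HUVEC and hMSC.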
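Also: spheroids exposed to agents for 7 days starting day 3 after seeding.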
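For viability, T/C in this document: percent of DMSO vehicle control viability with 100% = vehicle.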

Work on `C=CC(=O)N1CCN(c2nc(=O)n(-c3c(C)ccnc3C(C)C)c3nc(-c4c(O)cccc4F)c(F)cc23)C(C)C1` (configuration not stated) + CNC(C)C(=O)NC1CN(S(=O)(=O)c2cccc(S(=O)(=O)N3CCC4CCC(C(=O)NC(c5ccccc5)c5ccccc5)N4C(=O)C(NC(=O)C(C)NC)C3)c2)CCC2CCC(C(=O)NC(c3ccccc3)c3ccccc3)N2C1=O yielded an IC50 (second compound 0.00316 µM) of over 10 µM, an IC50 (second compound 0.01 µM) of over 10 µM and an IC50 (second compound 0.0316 µM) of over 10 µM. It also gave an IC50 (second compound 0.1 µM) of over 10 µM, an IC50 (second compound 0.316 µM) of over 10 µM and an IC50 (second compound 1 µM) of over 10 µM. For the same compound, the viability, T/C (second compound 0.00316 µM, first compound 0.0316 µM) was 103%, the viability, T/C (second compound 0.00316 µM, first compound 0.1 µM) was 94.8% and the viability, T/C (second compound 0.00316 µM, first compound 0.316 µM) was 97.2%. It also gave a viability, T/C (second compound 0.00316 µM, first compound 1 µM) of 101%, a viability, T/C (second compound 0.00316 µM, first compound 3.16 µM) of 105% and a viability, T/C (second compound 0.00316 µM, first compound 10 µM) of 102%. For the same compound, the viability, T/C (second compound 0.01 µM, first compound 0.0316 µM) was 110%, the viability, T/C (second compound 0.01 µM, first compound 0.1 µM) was 94.9% and the viability, T/C (second compound 0.01 µM, first compound 0.316 µM) was 95.5%. For the same compound, the viability, T/C (second compound 0.01 µM, first compound 1 µM) was 107%, the viability, T/C (second compound 0.01 µM, first compound 3.16 µM) was 111% and the viability, T/C (second compound 0.01 µM, first compound 10 µM) was 103%. It also gave a viability, T/C (second compound 0.0316 µM, first compound 0.0316 µM) of 93.6%, a viability, T/C (second compound 0.0316 µM, first compound 0.1 µM) of 95.3% and a viability, T/C (second compound 0.0316 µM, first compound 0.316 µM) of 89.9%. It also gave a viability, T/C (second compound 0.0316 µM, first compound 1 µM) of 99%, a viability, T/C (second compound 0.0316 µM, first compound 3.16 µM) of 95% and a viability, T/C (second compound 0.0316 µM, first compound 10 µM) of 99.6%. It also gave a viability, T/C (second compound 0.1 µM, first compound 0.0316 µM) of 111%, a viability, T/C (second compound 0.1 µM, first compound 0.1 µM) of 105% and a viability, T/C (second compound 0.1 µM, first compound 0.316 µM) of 100%. The viability, T/C (second compound 0.1 µM, first compound 1 µM) was 93.8%, the viability, T/C (second compound 0.1 µM, first compound 3.16 µM) was 104% and the viability, T/C (second compound 0.1 µM, first compound 10 µM) was 91.3%. For the same compound, the viability, T/C (second compound 0.316 µM, first compound 0.0316 µM) was 105%, the viability, T/C (second compound 0.316 µM, first compound 0.1 µM) was 109% and the viability, T/C (second compound 0.316 µM, first compound 0.316 µM) was 99.9%. For the same compound, the viability, T/C (second compound 0.316 µM, first compound 1 µM) was 105%, the viability, T/C (second compound 0.316 µM, first compound 3.16 µM) was 94% and the viability, T/C (second compound 0.316 µM, first compound 10 µM) was 103%. For the same compound, the viability, T/C (second compound 1 µM, first compound 0.0316 µM) was 81.9%, the viability, T/C (second compound 1 µM, first compound 0.1 µM) was 78% and the viability, T/C (second compound 1 µM, first compound 0.316 µM) was 85.4%. The viability, T/C (second compound 1 µM, first compound 1 µM) was 76.3%, the viability, T/C (second compound 1 µM, first compound 3.16 µM) was 101% and the viability, T/C (second compound 1 µM, first compound 10 µM) was 93.6%.
